# According to article PMC9059924 (RSC Advances, 2019):
# What was measured:
# Assay type in all cases: cell-based, rat
# primary cortical neurons = assay: Viability of normal primary cortical neurons after administration; conditions: 100 μM; for Cell survival rate of primary neurons after administration: normal neurons, control 1.00, mean ± SE
# [1] = system: primary cortical neurons (OGD model); assay: Cell viability of primary cortical neurons in oxygen glucose deprivation; conditions: for Sample in 100 μM: cytotoxic at this concentration: footnote c; for Neuroprotective activity of BA compounds in OGD model, in words: text SAR; for Cell survival rate of primary neurons (OGD 12 h), Edaravone: positive drug 100 μM; for Improvement of survival rate of neuron (OGD 12 h), in words: P < 0.05 vs model
# [2] = system: primary cortical neurons (OGD model); assay: Morphology of OGD neurons under inverted microscope; conditions: OGD 12 h
Compound,Cell survival rate of primary neurons after administration (primary cortical neurons) [%],Sample in 100 μM: cytotoxic at this concentration ([1]; BA compounds),further results
"COc1ccc(NC(=O)/C=C/c2ccc3c(c2)C=CC(C)(C)O3)cc1 [BN-02, (E)-3-(2,2-Dimethyl-2H-1-benzopyran-6-yl)-N-(4-methoxyphenyl)acrylamide]",0.93 ± 0.0080,–,–
"COc1cc(/C=C/C(=O)Nc2ccc3c(c2)C=CC(C)(C)O3)ccc1O [BA-02, (E)-N-(2,2-Dimethyl-2H-1-benzopyran-6-yl)-3-(4-hydroxy-3-methoxyphenyl)acrylamide]",0.76 ± 0.025,— ^c,"Cytotoxicity to normal neurons (reduced cell survival rate), in words (primary cortical neurons): cytotoxic"
"CC1(C)C=Cc2cc(NC(=O)/C=C/c3ccc(O)cc3)ccc2O1 [BA-01, (E)-N-(2,2-Dimethyl-2H-1-benzopyran-6-yl)-3-(4-hydroxyphenyl)acrylamide]",0.75 ± 0.021,— ^c,"Cytotoxicity to normal neurons (reduced cell survival rate), in words (primary cortical neurons): cytotoxic; Neuroprotective activity of BA compounds in OGD model, in words ([1]; OGD 12 h): the activity was decreased or disappeared"
"COc1ccc(N2CCN(C(=O)/C=C/c3ccc4c(c3)C=CC(C)(C)O4)CC2)cc1 [BN-06, (E)-3-(2,2-Dimethyl-2H-1-benzopyran-6-yl)-1-(4-(4-methoxyphenyl)piperazin-1-yl)prop-2-en-1-one]",0.91 ± 0.028,–,–
"COc1cccc(NC(=O)/C=C/c2ccc3c(c2)C=CC(C)(C)O3)c1 [BN-03, (E)-3-(2,2-Dimethyl-2H-1-benzopyran-6-yl)-N-(3-methoxyphenyl)acrylamide]",0.89 ± 0.02,–,–
"CC1(C)C=Cc2cc(NC(=O)/C=C/c3ccc4c(c3)OCO4)ccc2O1 [BA-05, (E)-N-(2,2-Dimethyl-2H-1-benzopyran-6-yl)-3-(1,3-benzodioxole-5-yl)acrylamide]",0.85 ± 0.037,–,–
"5-methyl-2-phenyl-1,2-dihydropyrazol-3-one [Edaravone, reference compound]",–,–,"Cell survival rate of primary neurons (OGD 12 h), Edaravone ([1]; BA table, model 0.49 ± 0.094, mean ± SE): 0.54 ± 0.0069 %; Cell survival rate of primary neurons (OGD 12 h), Edaravone ([1]; BN table, model 0.41 ± 0.014, mean ± SE): 0.56 ± 0.015 %"
"3-(2,2-Dimethyl-2H-1-benzopyran-6-yl)-N-(3-methoxyphenyl)-3-((3-methoxyphenyl)amino)propenamide [BN-10]",0.81 ± 0.058,–,"Cell survival rate of primary neurons (OGD 12 h), Sample in 1 μM ([1]; BN compounds, 1 μM, model 0.41 ± 0.014, control 1.00, mean ± SE): 0.81 ± 0.0090 %; Cell survival rate of primary neurons (OGD 12 h), Sample in 30 μM ([1]; BN compounds, 30 μM, model 0.41 ± 0.014, control 1.00, mean ± SE): 0.77 ± 0.0035 %; Sample in 100 μM: cytotoxic at this concentration ([1]; BN compounds): — ^c"
"CC1(C)C=Cc2cc(/C=C/C(=O)Oc3ccccc3)ccc2O1 [BN-05, (E)-3-(2,2-Dimethyl-2H-1-benzopyran-6-yl)-acrylate-phenyl ester]",0.86 ± 0.023,–,–
"COc1ccc(NC(=O)CC(Nc2ccc(OC)cc2)c2ccc3c(c2)C=CC(C)(C)O3)cc1 (stereo not drawn) [BN-09, 3-(2,2-Dimethyl-2H-1-benzopyran-6-yl)-N-(4-methoxyphenyl)-3-((4-methoxyphenyl)amino)propanamide]",0.80 ± 0.047,–,Sample in 100 μM: cytotoxic at this concentration ([1]; BN compounds): — ^c
"CC1(C)C=Cc2cc(NC(=O)/C=C/c3ccccc3)ccc2O1 [BA-07, (E)-N-(2,2-Dimethyl-2H-1-benzopyran-6-yl)-3-phenylacrylamide]",0.78 ± 0.046,— ^c,"Cytotoxicity to normal neurons (reduced cell survival rate), in words (primary cortical neurons): cytotoxic; Improvement of survival rate of neuron (OGD 12 h), in words ([1]; 1 μM): significantly improve the survival rate of neuron"
"COc1ccc(/C=C/C(=O)Nc2ccc3c(c2)C=CC(C)(C)O3)cc1O [BA-03, (E)-N-(2,2-Dimethyl-2H-1-benzopyran-6-yl)-3-(3-hydroxy-4-methoxyphenyl)acrylamide]",0.77 ± 0.012,— ^c,"Cytotoxicity to normal neurons (reduced cell survival rate), in words (primary cortical neurons): cytotoxic; Improvement of survival rate of neuron (OGD 12 h), in words ([1]; 1 μM): significantly improve the survival rate of neuron"
"CC1(C)C=Cc2cc(NC(=O)/C=C/c3cccnc3)ccc2O1 [BA-09, (E)-N-(2,2-Dimethyl-2H-1-benzopyran-6-yl)-3-(pyridin-3-yl)acrylamide]",0.49 ± 0.047,— ^c,"Improvement of survival rate of neuron (OGD 12 h), in words ([1]; 1 μM): significantly improve the survival rate of neuron; Neuroprotective activity of BA compounds in OGD model, in words ([1]; OGD 12 h): maintained the same biological activity"
"CC1(C)C=Cc2cc(NC(=O)/C=C/c3ccc(O)c(O)c3)ccc2O1 [BA-04, (E)-N-(2,2-Dimethyl-2H-1-benzopyran-6-yl)-3-(3,4-dihydroxyphenyl)acrylamide]",0.56 ± 0.014,— ^c,"Cytotoxicity to normal neurons (reduced cell survival rate), in words (primary cortical neurons): cytotoxic; Neuroprotective activity of BA compounds in OGD model, in words ([1]; OGD 12 h): the activity was decreased or disappeared"
"CC1(C)C=Cc2cc(/C=C/C(=O)Nc3ccccc3)ccc2O1 [BN-01, (E)-3-(2,2-Dimethyl-2H-1-benzopyran-6-yl)-N-phenylacrylamide]",0.85 ± 0.038,–,–
"COc1ccccc1NC(=O)/C=C/c1ccc2c(c1)C=CC(C)(C)O2 [BN-04, (E)-3-(2,2-Dimethyl-2H-1-benzopyran-6-yl)-N-(2-methoxyphenyl)acrylamide]",0.88 ± 0.038,–,–
"COc1ccc(/C=C/C(=O)Nc2ccc3c(c2)C=CC(C)(C)O3)cc1 [BA-06, (E)-N-(2,2-Dimethyl-2H-1-benzopyran-6-yl)-3-(4-methoxyphenyl)acrylamide]",0.86 ± 0.018,–,–
"CC1(C)C=Cc2cc(NC(=O)/C=C/c3ccco3)ccc2O1 [BA-10, (E)-N-(2,2-Dimethyl-2H-1-benzopyran-6-yl)-3-(furan-2-yl)acrylamide]",0.84 ± 0.026,–,"Neuroprotective activity of BA compounds in OGD model, in words ([1]; OGD 12 h): lost neuroprotective effect"
"CC1(C)C=Cc2cc(/C=C/C(=O)N3CCN(c4ccc(O)cc4)CC3)ccc2O1 [BN-07, (E)-3-(2,2-Dimethyl-2H-1-benzopyran-6-yl)-1-(4-(4-hydroxyphenyl)piperazin-1-yl)prop-2-en-1-one]",0.96 ± 0.0063,–,"Neuroprotective effect of BN compounds on survival of OGD neurons, in words ([1]; OGD 12 h, compared with model group / edaravone): good efficacy in neurons of OGD model; Morphology of neurons induced by OGD, in words [2]: significantly improved the morphology of neurons"
"CC1(C)C=Cc2cc(NC(=O)/C=C/c3cccc4ccccc34)ccc2O1 [BA-08, (E)-N-(2,2-Dimethyl-2H-1-benzopyran-6-yl)-3-(naphthalen-1-yl)acrylamide]",0.73 ± 0.025,— ^c,"Improvement of survival rate of neuron (OGD 12 h), in words ([1]; 1 μM): significantly improve the survival rate of neuron"
"CC1(C)C=Cc2cc(C(CC(=O)Nc3ccccc3)Nc3ccccc3)ccc2O1 (stereo not drawn) [BN-08, 3-(2,2-Dimethyl-2H-1-benzopyran-6-yl)-N-phenyl-3-(phenylamino)propanamide]",0.99 ± 0.019,–,–
"CC1(C)C=Cc2cc(NC(=O)/C=C/c3cccs3)ccc2O1 [BA-11, (E)-N-(2,2-Dimethyl-2H-1-benzopyran-6-yl)-3-(thiophen-2-yl)acrylamide]",0.89 ± 0.054,–,"Improvement of survival rate of neuron (OGD 12 h), in words ([1]; 1 μM): significantly improve the survival rate of neuron; Neuroprotective activity of BA compounds in OGD model, in words ([1]; OGD 12 h): maintained the same biological activity"
